Source: the supplement of paper PMC10307832

Legend:
Experiment in all cases: relative viability (nuclei count vs DMSO), 5 days (fraction); higher = more cells survive
[1] = compound: O=C(O)c1ccc2c(c1)nc(Nc1cccc(Cl)c1)c1ccncc12 [Silmitasertib] + CS(=O)(=O)N1CCN(Cc2cc3nc(-c4cccc5[nH]ncc45)nc(N4CCOCC4)c3s2)CC1 [Pictilisib] (partner 1 µM)
Procedure, shortened: (§1)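 Lung cancer cell lines in 1536-well plates got either a single drug or a fixed anchor-drug dose together with five library-drug doses (not always all listed) in √10 steps, by pin tool, on the day after seeding. Nuclei were counted after 5 days, and relative viability is the treated-to-vehicle ratio of nuclei counts. Values are medians of duplicate plates.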

[2] = compound: O=C(O)c1ccc2c(c1)nc(Nc1cccc(Cl)c1)c1ccncc12 [Silmitasertib] + CS(=O)(=O)CCNCc1ccc(-c2ccc3ncnc(Nc4ccc(OCc5cccc(F)c5)c(Cl)c4)c3c2)o1 [Lapatinib] (partner 2 µM)
Procedure, shortened: as §1

[3] = compound: O=C(O)c1ccc2c(c1)nc(Nc1cccc(Cl)c1)c1ccncc12 [Silmitasertib] + COc1cc2c(Oc3ccc(NC(=O)C4(C(=O)Nc5ccc(F)cc5)CC4)cc3F)ccnc2cc1OCCCN1CCOCC1 [Foretinib] (partner 0.25 µM)
Procedure, shortened: as §1

[4] = compound: O=C(O)c1ccc2c(c1)nc(Nc1cccc(Cl)c1)c1ccncc12 [Silmitasertib] + CC(C)C[C@H](NC(=O)[C@H](Cc1ccccc1)NC(=O)c1cnccn1)B(O)O [Bortezomib] (partner 0.002 µM)
Procedure, shortened: as §1

[5] = compound: O=C(O)c1ccc2c(c1)nc(Nc1cccc(Cl)c1)c1ccncc12 [Silmitasertib] + C[C@]1(O)C[C@@H](c2nc(-c3ccc4ccc(-c5ccccc5)nc4c3)c3c(N)nccn32)C1 [Linsitinib] (partner 1 µM)
Procedure, shortened: as §1

Silmitasertib + Olaparib = compound: O=C(O)c1ccc2c(c1)nc(Nc1cccc(Cl)c1)c1ccncc12 [Silmitasertib] + O=C(c1cc(Cc2n[nH]c(=O)c3ccccc23)ccc1F)N1CCN(C(=O)C2CC2)CC1 [Olaparib] (partner 8 µM)
Procedure, shortened: as §1

[6] = compound: O=C(O)c1ccc2c(c1)nc(Nc1cccc(Cl)c1)c1ccncc12 [Silmitasertib] + CC1(C)CCC(c2ccc(Cl)cc2)=C(CN2CCN(c3ccc(C(=O)NS(=O)(=O)c4ccc(N[C@H](CCN5CCOCC5)CSc5ccccc5)c(S(=O)(=O)C(F)(F)F)c4)cc3)CC2)C1 [Navitoclax] (partner 0.5 µM)
Procedure, shortened: as §1

[7] = compound: O=C(O)c1ccc2c(c1)nc(Nc1cccc(Cl)c1)c1ccncc12 [Silmitasertib] + Cc1nc(NC(=O)N2CCC[C@H]2C(N)=O)sc1-c1ccnc(C(C)(C)C(F)(F)F)c1 [Alpelisib] (partner 2 µM)
Procedure, shortened: as §1

[8] = compound: O=C(O)c1ccc2c(c1)nc(Nc1cccc(Cl)c1)c1ccncc12 [Silmitasertib] + C[C@@H](Oc1cc(-c2cnn(C3CCNCC3)c2)cnc1N)c1c(Cl)ccc(F)c1Cl [Crizotinib] (partner 1 µM)
Procedure, shortened: as §1

Silmitasertib = compound: O=C(O)c1ccc2c(c1)nc(Nc1cccc(Cl)c1)c1ccncc12 [Silmitasertib]
Procedure, shortened: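 Lung cancer cell lines in 1536-well plates were kept overnight at 37 °C, then pinned with five library-drug doses (not always all listed) spaced by √10 on vehicle-anchored plates. After 5 days without medium change, cells were fixed, permeabilised and Hoechst-stained in one step, imaged at 4×, and nuclei were counted with MetaXpress. Viability is treated-well nuclei divided by vehicle-well nuclei, taken as the median over plates. Plates passed only with control CV below 25% and at least one doubling.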

[9] = compound: O=C(O)c1ccc2c(c1)nc(Nc1cccc(Cl)c1)c1ccncc12 [Silmitasertib] + CCNC(=O)c1noc(-c2cc(C(C)C)c(O)cc2O)c1-c1ccc(CN2CCOCC2)cc1 [Luminespib] (partner 0.01 µM)
Procedure, shortened: as §1

Silmitasertib + OSI-027 = compound: O=C(O)c1ccc2c(c1)nc(Nc1cccc(Cl)c1)c1ccncc12 [Silmitasertib] + COc1cccc2cc(-c3nc([C@H]4CC[C@H](C(=O)O)CC4)n4ncnc(N)c34)[nH]c12 [OSI-027] (partner 0.5 µM)
Procedure, shortened: as §1

[10] = compound: O=C(O)c1ccc2c(c1)nc(Nc1cccc(Cl)c1)c1ccncc12 [Silmitasertib] + Cc1nc(Nc2ncc(C(=O)Nc3c(C)cccc3Cl)s2)cc(N2CCN(CCO)CC2)n1 [Dasatinib] (partner 0.075 µM)
Procedure, shortened: as §1

[11] = compound: O=C(O)c1ccc2c(c1)nc(Nc1cccc(Cl)c1)c1ccncc12 [Silmitasertib] + N=C(N)NC(=N)NCCc1ccccc1 [Phenformin] (partner 250 µM)
Procedure, shortened: as §1

[12] = compound: O=C(O)c1ccc2c(c1)nc(Nc1cccc(Cl)c1)c1ccncc12 [Silmitasertib] + Cc1cc(Nc2cc(N3CCN(C)CC3)nc(Sc3ccc(NC(=O)C4CC4)cc3)n2)n[nH]1 [Tozasertib] (partner 0.1 µM)
Procedure, shortened: as §1

## NCI-H1299
[1]; first compound 0.04 µM
  relative viability: 1.07
[1]; first compound 0.4 µM
  relative viability: 0.559
[1]; first compound 1.265 µM
  relative viability: 0.343
[1]; first compound 4 µM
  relative viability: 0.277
[2]; first compound 0.04 µM
  relative viability: 0.989
[2]; first compound 0.4 µM
  relative viability: 0.949
[2]; first compound 1.265 µM
  relative viability: 0.894
[2]; first compound 4 µM
  relative viability: 0.804
[3]; first compound 0.04 µM
  relative viability: 1.19
[3]; first compound 0.4 µM
  relative viability: 1.08
[3]; first compound 1.265 µM
  relative viability: 1.02
[3]; first compound 4 µM
  relative viability: 1.13
[4]; first compound 0.04 µM
  relative viability: 1.08
[4]; first compound 0.4 µM
  relative viability: 1.01
[4]; first compound 1.265 µM
  relative viability: 0.988
[4]; first compound 4 µM
  relative viability: 1.04
[5]; first compound 0.04 µM
  relative viability: 0.96
[5]; first compound 0.4 µM
  relative viability: 1.01
[5]; first compound 1.265 µM
  relative viability: 0.901
[5]; first compound 4 µM
  relative viability: 0.587
Silmitasertib + Olaparib; first compound 0.04 µM
  relative viability: 0.946
Silmitasertib + Olaparib; first compound 0.4 µM
  relative viability: 1.02
Silmitasertib + Olaparib; first compound 1.265 µM
  relative viability: 0.872
Silmitasertib + Olaparib; first compound 4 µM
  relative viability: 0.803
[6]; first compound 0.04 µM
  relative viability: 1.1
[6]; first compound 0.4 µM
  relative viability: 1.02
[6]; first compound 1.265 µM
  relative viability: 1.06
[6]; first compound 4 µM
  relative viability: 1.05
[7]; first compound 0.04 µM
  relative viability: 1.08
[7]; first compound 0.4 µM
  relative viability: 1.04
[7]; first compound 1.265 µM
  relative viability: 1.02
[7]; first compound 4 µM
  relative viability: 0.826
[8]; first compound 0.04 µM
  relative viability: 0.956
[8]; first compound 0.4 µM
  relative viability: 0.99
[8]; first compound 1.265 µM
  relative viability: 0.994
[8]; first compound 4 µM
  relative viability: 0.764
Silmitasertib; 0.04 µM
  relative viability: 1.05
Silmitasertib; 0.4 µM
  relative viability: 1.03
Silmitasertib; 1.265 µM
  relative viability: 0.945
Silmitasertib; 4 µM
  relative viability: 0.834

## Calu-6
[1]; first compound 0.04 µM
  relative viability: 0.99
[1]; first compound 0.4 µM
  relative viability: 0.934
[1]; first compound 1.265 µM
  relative viability: 0.628
[1]; first compound 4 µM
  relative viability: 0.359
[2]; first compound 0.04 µM
  relative viability: 1.13
[2]; first compound 0.4 µM
  relative viability: 0.945
[2]; first compound 1.265 µM
  relative viability: 0.761
[2]; first compound 4 µM
  relative viability: 0.51
[3]; first compound 0.04 µM
  relative viability: 0.963
[3]; first compound 0.4 µM
  relative viability: 0.83
[3]; first compound 1.265 µM
  relative viability: 0.846
[3]; first compound 4 µM
  relative viability: 0.616
[4]; first compound 0.04 µM
  relative viability: 1.13
[4]; first compound 0.4 µM
  relative viability: 0.868
[4]; first compound 1.265 µM
  relative viability: 0.824
[4]; first compound 4 µM
  relative viability: 0.602
[5]; first compound 0.04 µM
  relative viability: 1.04
[5]; first compound 0.4 µM
  relative viability: 0.862
[5]; first compound 1.265 µM
  relative viability: 0.878
[5]; first compound 4 µM
  relative viability: 0.49
Silmitasertib + Olaparib; first compound 0.04 µM
  relative viability: 0.654
Silmitasertib + Olaparib; first compound 0.4 µM
  relative viability: 0.28
Silmitasertib + Olaparib; first compound 1.265 µM
  relative viability: 0.445
Silmitasertib + Olaparib; first compound 4 µM
  relative viability: 0.39
[6]; first compound 0.04 µM
  relative viability: 1
[6]; first compound 0.4 µM
  relative viability: 0.783
[6]; first compound 1.265 µM
  relative viability: 0.661
[6]; first compound 4 µM
  relative viability: 0.374
[7]; first compound 0.04 µM
  relative viability: 0.984
[7]; first compound 0.4 µM
  relative viability: 0.938
[7]; first compound 1.265 µM
  relative viability: 0.755
[7]; first compound 4 µM
  relative viability: 0.571
[8]; first compound 0.04 µM
  relative viability: 0.915
[8]; first compound 0.4 µM
  relative viability: 0.721
[8]; first compound 1.265 µM
  relative viability: 0.727
[8]; first compound 4 µM
  relative viability: 0.527
Silmitasertib; 0.04 µM
  relative viability: 1.14
Silmitasertib; 0.4 µM
  relative viability: 0.898
Silmitasertib; 1.265 µM
  relative viability: 0.885
Silmitasertib; 4 µM
  relative viability: 0.663

## NCI-H1623
[9]; first compound 0.04 µM
  relative viability: 0.46
[9]; first compound 0.4 µM
  relative viability: 0.4
[9]; first compound 1.265 µM
  relative viability: 0.355
[9]; first compound 4 µM
  relative viability: 0.343
Silmitasertib + OSI-027; first compound 0.04 µM
  relative viability: 0.347
Silmitasertib + OSI-027; first compound 0.4 µM
  relative viability: 0.385
Silmitasertib + OSI-027; first compound 1.265 µM
  relative viability: 0.368
Silmitasertib + OSI-027; first compound 4 µM
  relative viability: 0.357
[10]; first compound 0.04 µM
  relative viability: 0.576
[10]; first compound 0.4 µM
  relative viability: 0.456
[10]; first compound 1.265 µM
  relative viability: 0.297
[10]; first compound 4 µM
  relative viability: 0.361
[3]; first compound 0.04 µM
  relative viability: 0.934
[3]; first compound 0.4 µM
  relative viability: 0.572
[3]; first compound 1.265 µM
  relative viability: 0.49
[3]; first compound 4 µM
  relative viability: 0.536
[11]; first compound 0.04 µM
  relative viability: 0.563
[11]; first compound 0.4 µM
  relative viability: 0.498
[11]; first compound 1.265 µM
  relative viability: 0.446
[11]; first compound 4 µM
  relative viability: 0.382
[12]; first compound 0.04 µM
  relative viability: 0.422
[12]; first compound 0.4 µM
  relative viability: 0.392
[12]; first compound 1.265 µM
  relative viability: 0.36
[12]; first compound 4 µM
  relative viability: 0.371
Silmitasertib; 0.04 µM
  relative viability: 1.03
Silmitasertib; 0.4 µM
  relative viability: 0.715
Silmitasertib; 1.265 µM
  relative viability: 0.689
Silmitasertib; 4 µM
  relative viability: 0.693
